Values quoted from earlier work, collected in patent publication US20220362237A1, “PS[…] TREATMENT OF PAIN” (Mind Medicine, Inc., priority 2021, published 2022).

Key:
[1] = system: serotonin 5-HT1 receptors
[2] = target: D2 receptors (Homo sapiens, UniProt P14416)
[3] = target: 5-HT transporter (SERT) (Homo sapiens, UniProt P31645)
[4] = system: 5HT2A receptors; conditions: tumor necrosis factor-alpha-induced inflammation
[5] = target: 5-HT2A receptor (Homo sapiens, UniProt P28223)
[6] = system: 5-HT2B/C
[7] = grave and terminally ill patients, acute treatment (one or two doses); pain returned after several days
[8] = 20-microgram dose
[9] = system: D1-3 receptors

Sequence of 5-HT transporter (SERT) (P31645 whole entry, species assumed): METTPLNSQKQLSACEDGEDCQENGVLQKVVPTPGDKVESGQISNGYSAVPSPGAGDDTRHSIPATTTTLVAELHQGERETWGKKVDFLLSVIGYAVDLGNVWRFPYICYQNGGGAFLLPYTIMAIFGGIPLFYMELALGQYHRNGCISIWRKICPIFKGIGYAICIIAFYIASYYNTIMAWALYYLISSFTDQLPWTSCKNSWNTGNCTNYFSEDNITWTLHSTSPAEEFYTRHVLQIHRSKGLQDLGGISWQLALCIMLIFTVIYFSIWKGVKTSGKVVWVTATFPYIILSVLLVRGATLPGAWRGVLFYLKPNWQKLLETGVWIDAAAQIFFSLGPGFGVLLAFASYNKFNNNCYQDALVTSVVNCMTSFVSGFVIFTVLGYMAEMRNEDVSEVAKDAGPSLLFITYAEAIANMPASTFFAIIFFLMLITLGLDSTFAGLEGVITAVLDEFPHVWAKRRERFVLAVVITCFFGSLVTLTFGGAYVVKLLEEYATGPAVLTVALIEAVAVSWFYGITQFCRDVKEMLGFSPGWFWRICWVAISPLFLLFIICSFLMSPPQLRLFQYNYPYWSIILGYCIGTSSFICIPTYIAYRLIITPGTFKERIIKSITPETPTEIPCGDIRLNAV
Sequence of D2 receptors (P14416 whole entry): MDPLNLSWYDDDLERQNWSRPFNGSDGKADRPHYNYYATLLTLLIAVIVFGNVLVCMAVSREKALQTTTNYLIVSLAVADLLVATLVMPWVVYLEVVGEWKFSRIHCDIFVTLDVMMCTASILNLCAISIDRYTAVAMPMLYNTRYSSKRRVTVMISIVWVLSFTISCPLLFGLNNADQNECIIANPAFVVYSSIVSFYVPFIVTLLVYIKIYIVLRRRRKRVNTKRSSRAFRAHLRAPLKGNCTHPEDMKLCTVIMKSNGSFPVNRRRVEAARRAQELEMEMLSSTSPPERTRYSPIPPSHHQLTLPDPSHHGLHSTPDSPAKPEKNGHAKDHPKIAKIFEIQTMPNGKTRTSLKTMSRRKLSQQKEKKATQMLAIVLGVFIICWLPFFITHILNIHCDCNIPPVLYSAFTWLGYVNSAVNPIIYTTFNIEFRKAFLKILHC
Sequence of 5-HT2A receptor (P28223 whole entry): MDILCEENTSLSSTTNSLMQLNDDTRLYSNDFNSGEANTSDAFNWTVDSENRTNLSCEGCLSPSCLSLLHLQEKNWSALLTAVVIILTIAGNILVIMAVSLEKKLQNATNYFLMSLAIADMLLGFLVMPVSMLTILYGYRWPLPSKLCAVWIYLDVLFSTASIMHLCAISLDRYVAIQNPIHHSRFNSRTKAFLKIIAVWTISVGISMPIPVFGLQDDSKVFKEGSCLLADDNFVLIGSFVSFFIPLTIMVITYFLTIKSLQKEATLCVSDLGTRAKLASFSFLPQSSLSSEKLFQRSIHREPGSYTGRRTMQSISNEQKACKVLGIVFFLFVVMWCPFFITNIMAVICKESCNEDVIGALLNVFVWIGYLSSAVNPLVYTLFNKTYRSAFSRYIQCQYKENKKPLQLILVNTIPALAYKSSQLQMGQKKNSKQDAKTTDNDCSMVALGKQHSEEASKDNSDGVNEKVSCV

COc1cc(CCN)cc(OC)c1OC [mescaline]
agonist potency at serotonin 5-HT1 receptors [1]: low potency
affinity for D2 receptors [2]: no affinity

CN(C)CCc1c[nH]c2cccc(O)c12 [psilocin]
agonist potency at serotonin 5-HT1 receptors [1]: potent agonists
interaction with / inhibition of the 5-HT transporter (SERT) [3]: inhibits

COc1cc(CC(C)N)c(OC)cc1I (stereo not shown) [R-DOI, 2,5-dimethoxy-4-iodoamphetamine]
anti-inflammatory effect [4]: potent anti-inflammatory effect

CCN(CC)C(=O)[C@@H]1C=C2c3cccc4[nH]cc(c34)C[C@H]2N(C)C1 [LSD, lysergic acid diethylamide]
stimulation of the 5-HT2A receptor [5]: potently stimulates
stimulation of 5-HT2B/C receptors [6]: stimulates
agonist potency at serotonin 5-HT1 receptors [1]: potent agonists
pain relief compared with the narcotics meperidine and dihydromorphinone [7]: greater and longer lasting pain relief
subjective levels of experienced pain and unpleasantness [8]: decreased
time that participants could tolerate cold water exposure [8]: significantly increased
stimulation of D1-3 receptors [9]: stimulates
interaction with / inhibition of the 5-HT transporter (SERT) [3]: does not interact
